Source: PubChem BioAssay (NCI)
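Compound exposure: 48 hours, 5 concentrations, 96-well plates. Definition used: TGI = concentration required for complete inhibition of growth.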

How the values were obtained:
Assay in all cases: NCI-60 cell line screen, 48 h
HOP-62 NSCLC = system: HOP-62 NSCLC
OVCAR-5 ovarian = system: OVCAR-5 ovarian
OVCAR-4 ovarian = system: OVCAR-4 ovarian
K-562 leukemia = system: K-562 leukemia
KM12 colon = system: KM12 colon
BT-549 breast = system: BT-549 breast
MOLT-4 leukemia = system: MOLT-4 leukemia
MDA-N = system: MDA-N
UACC-62 melanoma = system: UACC-62 melanoma
PC-3 prostate = system: PC-3 prostate
HCT-116 colon = system: HCT-116 colon
M14 melanoma = system: M14 melanoma
SNB-75 CNS = system: SNB-75 CNS
SF-295 CNS = system: SF-295 CNS

Measured: TGI

N#Cc1c2c(c(N)oc1=O)C(c1ccccc1)CC(=O)N2 (stereo not given)
> 100 µM: all assays above

Nc1ccc2c(c1)nc1n2C(c2c(F)cccc2F)SC1 (stereo not given)
> 100 µM: all assays above

Fc1ccc(N2C(=S)SC(=Nc3ccccc3)C2=Nc2ccccc2)cc1
> 100 µM: all assays above

Nc1ncnc2oc(C3OC(COC(=O)c4ccccc4)C(OC(=O)c4ccccc4)C3OC(=O)c3ccccc3)nc12 (stereo not given)
> 100 µM: all assays above

COc1ccc(OC)c(CNc2ccc(C(=O)O)cc2)c1
not listed: HOP-62 NSCLC | SF-295 CNS
> 100 µM: all other assays above

CCOC(=O)c1nc2cc(C(F)(F)F)ccc2nc1Nc1ccc(OC)cc1
not listed: OVCAR-4 ovarian | K-562 leukemia
> 100 µM: all other assays above
